Holding throughout (assay): Antimicrobial activity (MIC), agar diluting method
What all share (type): cell-based

In assay [1] the test system is Bacillus subtilis (ATCC 6633). As to conditions: ATCC6633, Mueller Hinton agar, 35° C., 18 hours. As to the method:
(§1) (1) Antimicrobial activity test
(§2) The antimicrobial activity was measured by the agar diluting method in accordance with the Standardized Method of the Japanese Society of Chemotherapy. A twofold dilution of a test compound was prepared by using M/50 phosphate buffer (pH 7.0). One milliliter of this solution and 9 ml of a Mueller Hinton agar medium (made by Difco Laboratories were mixed in a Petri dish having a diameter of 9 cm to prepare plates. A test microorganism was cultured overnight in a stationary condition at 35° C. in a Mueller-Hinton broth (made by Difco) and diluted with physiological saline to provide a cell density of about 10 ^6 cells/ml. Five microliter of the microorganism suspension was inoculated on the agar plates using a microplanter (made by Sakuma Seisakusho). The plates were incubated at 35° C. for 18 hours. The lowest concentration of the test compound at which the growth of the microorganism was completed inhibited is defined as the minimum inhibitory concentration (MIC) of the test compound against the test organism.

Assay [2] deals with Comamonas terrigena (B 996). As to conditions: Mueller Hinton agar, 35° C., 18 hours. The method, then:
as §1, §2

Assay [3] concerns Micrococcus luteus (ATCC 9341). As to conditions: ATCC9341, Mueller Hinton agar, 35° C., 18 hours. As to the method:
as §1, §2

Assay [4] has as its system Staphylococcus aureus (FDA 209 p). As to conditions: FDA209, Mueller Hinton agar, 35° C., 18 hours. The method, then: as §1, §2

Usually MIC stands for the least concentration at which growth counts as inhibited. Take `COC(=O)N(C)[C@H]1C(=O)N2C(C(=O)O)=C(SCCNC(C)=O)C[C@H]12` [[22], sodium (5R,6R)-6-(N-carbomethoxy-N-methyl)amino-3-acetamidoethylthio-1-azabicyclo[3.2.0]hept-2-ene-7-one-2-carboxylate]: the minimum inhibitory concentration (MIC) in assay [1] was determined as 6.25 µg/mL; in assay [2] it was 0.39 µg/mL; in assay [3] it was 3.13 µg/mL; in assay [4], 0.39 µg/mL.
On to `CC(=O)NCCSC1=C(C(=O)O)N2C(=O)[C@H](N(C)S(C)(=O)=O)[C@H]2C1` [[29], sodium (5R,6R)-3-(2-acetamidoethylthio)-6-(N-methanesulfonyl)methylamino-7-oxo-1-azabicyclo[3.2.0]hept-2-ene-2-carboxylate], for which the minimum inhibitory concentration (MIC) worked out at 1.56 µg/mL in assay [1], 3.13 µg/mL in assay [2], 0.78 µg/mL in assay [3] and 0.2 µg/mL in assay [4].
`CC(=O)NCCSC1=C(C(=O)O)N2C(=O)[C@H](N(C)C(=O)OCc3ccccc3)[C@H]2C1` [[14], sodium (5R,6R)-3-(2-acetamidoethylthio)-6-(N-benzyloxycarbonyl)methylamino-7-oxo-1-azabicyclo[3.2.0]hept-2-ene-2-carboxylate]: the MIC in assay [1] was 1.56 µg/mL; in assay [2], 1.56 µg/mL; in assay [3], 1.56 µg/mL; in assay [4] it was 0.2 µg/mL.

The values above are taken from US4996314A, “6-(disubstituted amino)carbapenem compounds” (Sanraku Incorporated, priority 1986, dated 1991).
